Experimental data: patent US20100087496A1, “NOVEL CINNAMIC AMIDE DERIVATIVES USEFUL AS ION CHANNEL MODULATORS” (NeuroSearch A/S, priority 2006, published 2010)
One block for each compound: values may come before it.

Molecular target: T1, BK channels heterologously expressed in Xenopus laevis oocytes (Homo sapiens, UniProt Q12791)
T1 construct: expressed in transfected cells; host or cells: Xenopus laevis oocytes
Experiment: BK channel opening activity, two-electrode voltage clamp in Xenopus laevis oocytes
Format: cell-based
Settings: step from −40 mV to +30 mV
Procedure: In this example the BK channel opening activity of three cinnamic amide derivatives representative of the invention, i.e. Compound 22 (A), Compound 9 (B) and Compound 19 (C), is determined using BK channels heterologously expressed in Xenopus laevis oocytes.
The electrical current through the BK channel is measured conventional two-electrode voltage clamp. BK current is activated by repeated step protocols. In brief, this protocol goes from a resting membrane potential of −40 mV lasting for 5 seconds to a depolarised step to +30 mV lasting for 1 second. The protocol was repeated continuously.
Having reached a stable current level, Compound A (3 μM), Compound B (1 μM) and Compound C (30 μM) was added.

T1 sequence (Q12791 whole entry): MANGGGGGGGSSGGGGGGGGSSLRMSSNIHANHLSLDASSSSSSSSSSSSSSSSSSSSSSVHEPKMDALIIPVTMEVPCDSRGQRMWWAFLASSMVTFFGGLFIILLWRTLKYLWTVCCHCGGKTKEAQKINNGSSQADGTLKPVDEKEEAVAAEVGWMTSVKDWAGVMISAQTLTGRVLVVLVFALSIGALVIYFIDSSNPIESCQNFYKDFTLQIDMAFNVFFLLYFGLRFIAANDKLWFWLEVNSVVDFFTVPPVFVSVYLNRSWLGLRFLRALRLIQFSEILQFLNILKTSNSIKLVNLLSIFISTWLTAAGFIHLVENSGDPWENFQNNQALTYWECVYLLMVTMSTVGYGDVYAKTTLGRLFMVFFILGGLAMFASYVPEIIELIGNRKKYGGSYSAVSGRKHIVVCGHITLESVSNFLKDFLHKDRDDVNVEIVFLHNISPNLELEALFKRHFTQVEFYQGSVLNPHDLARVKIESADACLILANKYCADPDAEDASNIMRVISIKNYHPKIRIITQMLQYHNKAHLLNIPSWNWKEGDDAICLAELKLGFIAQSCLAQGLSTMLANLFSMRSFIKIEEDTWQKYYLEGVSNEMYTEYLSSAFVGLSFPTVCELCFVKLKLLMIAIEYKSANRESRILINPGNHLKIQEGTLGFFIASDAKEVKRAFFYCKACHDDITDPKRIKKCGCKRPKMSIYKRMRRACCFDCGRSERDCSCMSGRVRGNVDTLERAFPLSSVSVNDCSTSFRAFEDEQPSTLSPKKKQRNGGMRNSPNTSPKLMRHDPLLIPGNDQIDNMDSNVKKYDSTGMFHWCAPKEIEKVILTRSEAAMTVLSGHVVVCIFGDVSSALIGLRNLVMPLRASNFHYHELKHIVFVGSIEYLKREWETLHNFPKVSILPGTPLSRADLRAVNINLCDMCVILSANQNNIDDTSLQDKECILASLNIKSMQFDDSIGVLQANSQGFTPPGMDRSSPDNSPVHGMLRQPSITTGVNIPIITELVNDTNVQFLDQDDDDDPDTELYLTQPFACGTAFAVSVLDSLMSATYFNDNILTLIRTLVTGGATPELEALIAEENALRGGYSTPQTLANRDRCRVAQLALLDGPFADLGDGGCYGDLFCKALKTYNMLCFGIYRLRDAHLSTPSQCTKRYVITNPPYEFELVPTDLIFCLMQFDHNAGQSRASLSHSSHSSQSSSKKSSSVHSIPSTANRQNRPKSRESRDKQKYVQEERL

- current activated by depolarisation (BK current) (30 μM): marked increase
Compound: O=C(/C=C/c1ccc2ccccc2c1)Nc1cc(Cl)ccc1S(=O)(=O)O [Compound 19, 4-Chloro-2-((E)-3-naphthalen-2-yl-acryloylamino)-benzenesulfonic acid]

- current activated by depolarisation (BK current) (3 μM): marked increase
Compound: O=C(Nc1cc(Cl)ccc1-c1nnn[nH]1)C1=Cc2cc(Cl)ccc2OC1 [Compound 22, 6-Chloro-2H-chromene-3-carboxylic acid [5-chloro-2-(1H-tetrazol-5-yl)-phenyl]-amide]

Compound: O=C(/C=C/c1ccc2ccccc2c1)Nc1cc(Cl)ccc1-c1nnn[nH]1 [Compound 9, (E)-N-[5-Chloro-2-(1H-tetrazol-5-yl)-3-phenyl]-3-naphthalen-2-yl-acrylamide]
- current activated by depolarisation (BK current) (1 μM): marked increase
